In US4808701A, “Cyclic peptides having appetite regulating activity” (Hoffmann-La Roche Inc., priority 1987, dated 1989):
Where a SMILES comes first, the peptide text is derived from it.

Assays:
[1] = target: T1, 3H-CCK-8-(SO3H) binding, rat pancreas homogenate (Rattus norvegicus, UniProt P30551); assay: In vitro receptor binding assay, rat pancreas; conditions: 0.15 nM 3H-CCK-8-(SO3H), 30 min, 25° C.; read-out: Rat Pancreas IC50 (inhibition of specific 3H-CCK-8-(SO3H) binding)
T1 construct: tissue homogenate (striatum 0.26 mg protein in 2 ml final volume; pancreas 0.165 mg protein in 1 ml final volume); from tissue; host or cells: rat pancreas membrane homogenate
T1 sequence (P30551 1-444): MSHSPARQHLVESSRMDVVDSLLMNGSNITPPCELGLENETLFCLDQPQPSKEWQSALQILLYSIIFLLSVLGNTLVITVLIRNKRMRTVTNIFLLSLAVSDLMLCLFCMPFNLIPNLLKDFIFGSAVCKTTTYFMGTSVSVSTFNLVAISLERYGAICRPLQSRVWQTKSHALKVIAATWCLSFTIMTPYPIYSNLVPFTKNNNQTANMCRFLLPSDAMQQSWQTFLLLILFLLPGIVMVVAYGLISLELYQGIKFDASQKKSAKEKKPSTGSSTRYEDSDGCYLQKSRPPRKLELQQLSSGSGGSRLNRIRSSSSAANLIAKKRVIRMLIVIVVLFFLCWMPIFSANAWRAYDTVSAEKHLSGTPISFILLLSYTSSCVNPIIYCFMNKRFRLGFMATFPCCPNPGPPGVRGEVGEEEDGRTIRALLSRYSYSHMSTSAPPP
Procedure: (§1) The tissue was homogenized 2× for approx. 15 sec. at 0° C. using a Polytron homogenizer at a setting of 6. The tissue was isolated by centrifugation at 48,000×g for 10 min. at 0° C. […] Samples were incubated for 30 min. at 25° C. and the incubation terminated by pouring the mixture onto a pre-wet Whatman GF/B filter on a Sandbeck Vacuum Filtration Manifold. The incubation tubes were washed with 2×3 ml of ice-cold HEPES Buffer #2 and the wash filtered through the GF/B filter. The filter was air dried for 10 min. and then placed in a scintillation vial with 12 ml of Beckman HP/b Ready-Solv scintillation cocktail. The vials were shaken for 2-12 hours and then counted using a Beckman Model 7800 liquid scintillation spectrometer.

[2] = target: T2, 3H-CCK-8-(SO3H) binding, bovine striatum homogenate (Bos taurus, UniProt P79266); assay: In vitro receptor binding assay, bovine striatum; conditions: 0.15 nM 3H-CCK-8-(SO3H), 30 min, 25° C.; read-out: Bovine Striatum IC50 (inhibition of specific 3H-CCK-8-(SO3H) binding)
T2 construct: tissue homogenate (striatum 0.26 mg protein in 2 ml final volume; pancreas 0.165 mg protein in 1 ml final volume); from tissue; host or cells: bovine striatum membrane homogenate
T2 sequence (P79266 1-454): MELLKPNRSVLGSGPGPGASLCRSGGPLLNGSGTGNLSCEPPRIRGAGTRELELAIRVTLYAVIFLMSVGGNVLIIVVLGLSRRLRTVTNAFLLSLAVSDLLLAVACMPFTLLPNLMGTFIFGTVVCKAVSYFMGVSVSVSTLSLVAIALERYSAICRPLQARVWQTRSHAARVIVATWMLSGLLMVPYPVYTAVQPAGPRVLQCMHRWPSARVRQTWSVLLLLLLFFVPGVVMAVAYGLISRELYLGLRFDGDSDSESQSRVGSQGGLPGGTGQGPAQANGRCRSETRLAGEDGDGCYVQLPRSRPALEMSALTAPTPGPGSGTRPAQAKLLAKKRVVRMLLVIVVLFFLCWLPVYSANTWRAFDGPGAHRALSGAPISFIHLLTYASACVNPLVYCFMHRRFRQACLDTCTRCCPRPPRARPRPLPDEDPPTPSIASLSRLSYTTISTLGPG
Procedure: as §1

[3] = in vitro; conditions: human, real gastrointestinal fluid or homogenate
Procedure: The degradation was monitored by analytical HPLC on a micro Bondapack (C18 column (0.4×30 cm) with a linear gradient of 10-40% of 0.01M NH4 Ac/CH3 CN in 40 min. with a flow rate of 2 ml/min and detection at 225 nm.

[4] = system: food intake in lean and obese men; conditions: infusions in lean and obese men; cited from earlier work
[5] = system: food intake of meal-trained male Sprague-Dawley (CD) rats; assay: Two-meal feeding assay; assay type: in vivo, rat; conditions: dose 32 microgm/kg i.p. 15 min before first meal; mean ± SEM
Procedure: Male Sprague-Dawley (CD) rats weighing 180-200 grams (Charles River Breeding Laboratories) were acclimated to a 12 h light/dark cycle (6 a.m. to 6 p.m.) in a room kept at 22° C. They were subsequently fasted for two days, weighed, placed in individual cages, and a four-day period of meal training was begun. During this time the rats were given ground laboratory chow (Purina Lab Chow) in jars for one hour from 9:00 a.m. until 10:00 a.m., the jars were removed from 10:00 a.m. to 12:00 p.m., and placed back in the cages from 12:00 until 1:00 p.m. Under this `1-2-1` meal feeding regime, most rats learn to eat approximately as much per day during the two hours they have access to food as rats which have food ad libitum over the entire 24-hour day. On the fourth day, the rats were weighed again, and any which lost more than five grams body weight were excluded from the test. The animals were then distributed into experimental (n=5 to 6) and control groups (n=6-12), but not matched for body weight.
Peptides of the invention were suspended either in saline, if soluble, or in 1% gum arabic, if insoluble, at concentrations of 32 to 320 μg/ml/kg body weight and were administered intraperitonerally 15 min before the first meal on day 5 of meal feeding. […] Food intake was expressed as a mean and standard error of the mean as a percent of control values for the various groups. […]

CCCC[C@@H]1NC(=O)[C@H](Cc2c[nH]c3ccccc23)NC(=O)CNC(=O)[C@@H](NC(=O)[C@H](Cc2ccc(OS(=O)(=O)O)cc2)NC(C)=O)CCCCNC(=O)C[C@@H](C(=O)N(C)[C@@H](Cc2ccccc2)C(N)=O)NC1=O (HELM PEPTIDE1{[ac].[O=C([C@H](Cc1ccc(OS(=O)(=O)O)cc1)N[*:1])[*:2]].K.G.W.[Nle].D.[meF].[am]}$PEPTIDE1,PEPTIDE1,3:R3-7:R3$$$V2.0)
IC50 [1]: 6600 nM | IC50 [2]: > 1000 nM

CSCC[C@@H]1NC(=O)[C@H](Cc2ccc(OS(=O)(=O)O)cc2)NC(=O)CC[C@@H](C(=O)N[C@H](C(=O)N(C)[C@@H](Cc2ccccc2)C(N)=O)[C@@H](C)OS(=O)(=O)O)NC(=O)[C@H](Cc2c[nH]c3ccccc23)NC(=O)CNC1=O [Example 3] (HELM PEPTIDE1{[O=C([C@H](Cc1ccc(OS(=O)(=O)O)cc1)N[*:1])[*:2]].M.G.W.E.[C[C@@H](OS(=O)(=O)O)[C@H](N[*:1])C(=O)[*:2]].[meF].[am]}$PEPTIDE1,PEPTIDE1,1:R1-5:R3$$$V2.0)
IC50 [1]: > 10000 nM | IC50 [2]: > 10000 nM

CSCC[C@@H]1NC(=O)[C@H](Cc2c[nH]c3ccccc23)NC(=O)CNC(=O)[C@@H](NC(=O)[C@H](Cc2ccc(OS(=O)(=O)O)cc2)NC(C)=O)CCCCNC(=O)C[C@@H](C(=O)N[C@@H](Cc2ccccc2)C(N)=O)NC1=O (HELM PEPTIDE1{[ac].[O=C([C@H](Cc1ccc(OS(=O)(=O)O)cc1)N[*:1])[*:2]].K.G.W.M.D.F.[am]}$PEPTIDE1,PEPTIDE1,3:R3-7:R3$$$V2.0)
IC50 [1]: 45 nM | IC50 [2]: > 1000 nM

CSCC[C@H](NC(=O)[C@H](Cc1ccc(OS(=O)(=O)O)cc1)NC(=O)[C@@H](N)CC(=O)O)C(=O)NCC(=O)N[C@@H](Cc1c[nH]c2ccccc12)C(=O)N[C@@H](CCSC)C(=O)N[C@@H](CC(=O)O)C(=O)N[C@@H](Cc1ccccc1)C(N)=O [CCK-8, H-Asp-Tyr-(SO3 H)-Met-Gly-Trp-Met-Asp-Phe-NH2]
IC50 [1]: 1 to 3.2 nM | metabolised at 0.25 h, 0.5 mg/mL [3]: 90% | metabolised at 1 h, 0.5 mg/mL [3]: 100% | IC50 [2]: 1 to 4.6 nM | Effect of infusion on food intake [4]: decrease food intake | Food Intake 1st Meal [5]: 27 ± 17 % of Control | Food Intake 2nd Meal [5]: 149 ± 6 % of Control

CSCC[C@@H]1NC(=O)[C@H](Cc2c[nH]c3ccccc23)NC(=O)CNC(=O)[C@@H](NC(=O)[C@H](Cc2ccc(OS(=O)(=O)O)cc2)NC(C)=O)CCCCNC(=O)C[C@@H](C(=O)N(C)[C@@H](Cc2ccccc2)C(N)=O)NC1=O [Example 1] (HELM PEPTIDE1{[ac].[O=C([C@H](Cc1ccc(OS(=O)(=O)O)cc1)N[*:1])[*:2]].K.G.W.M.D.[meF].[am]}$PEPTIDE1,PEPTIDE1,3:R3-7:R3$$$V2.0)
IC50 [1]: 1500 nM | metabolised at 1 h, 0.5 mg/mL [3]: 1.4% | IC50 [2]: 3000 nM

CSCC[C@@H]1NC(=O)[C@H](Cc2c[nH]c3ccccc23)NC(=O)CNC(=O)[C@@H](NC(=O)[C@H](Cc2ccc(OS(=O)(=O)O)cc2)NC(C)=O)CCCNC(=O)C[C@@H](C(=O)N(C)[C@@H](Cc2ccccc2)C(N)=O)NC1=O (HELM PEPTIDE1{[ac].[O=C([C@H](Cc1ccc(OS(=O)(=O)O)cc1)N[*:1])[*:2]].[Orn].G.W.M.D.[meF].[am]}$PEPTIDE1,PEPTIDE1,3:R3-7:R3$$$V2.0)
IC50 [1]: 13000 nM | IC50 [2]: 52000 nM
